# Results published in publication PMC12014616, “HPLC-UV method development and validation for anticancer drug sorafenib and the co-prescribed drug dexamethasone: application to pharmacokinetic evaluation of sorafenib nanoformulations” (Frontiers in Pharmacology, 2025).
# Assay: Stability of sorafenib-spiked plasma samples at different storage conditions
# Type: physicochemical
# Experimental: The plasma was separated from the blood by centrifugation at 8,000 rpm for 10 min at […]. The plasma (200 µL) was spiked with sorafenib, dexamethasone, and IS, the protein was precipitated with acetonitrile, and the extraction of the analytes was carried out with ACN, MeOH, and DCM. The following plan was applied to obtain the sample (Figure 2), and a sample (20 µL) was applied for analysis.
# Linearity was confirmed through least squares regression, while sensitivity was measured on the basis of the S/N ratio of HPLC software. The S/N ratios are 3 and 10 for LOD and LOQ, respectively. Similar robustness was tested through planned changes in parameters while stability studies were performed at different storage conditions (‒20°C, 4°C, and 25°C) for a month using Equation 3. % Stability=St/So X 100, (3) where St indicates stability at time t, and S0 indicates stability at time 0.
compound,measurement,setting,value
"CNC(=O)c1cc(Oc2ccc(NC(=O)Nc3ccc(Cl)c(C(F)(F)F)c3)cc2)ccn1 [sorafenib, Sorafenib]",% Recovery (Mean ± SD),"4°C, 6 hours, 250 ng/mL",98.13 ± 0.19; 0.19%
same,% Recovery (Mean ± SD),"4°C, 6 hours, 500 ng/mL",98.29 ± 0.65; 0.66%
same,% Recovery (Mean ± SD),"4°C, 6 hours, 1,000 ng/mL",98.91 ± 0.91; 0.92%
same,% Recovery (Mean ± SD),"4°C, 24 hours, 250 ng/mL",98.11 ± 0.38; 0.77%
same,% Recovery (Mean ± SD),"4°C, 24 hours, 500 ng/mL",98.30 ± 0.67; 0.68%
same,% Recovery (Mean ± SD),"4°C, 24 hours, 1,000 ng/mL",98.05 ± 0.68; 0.69%
same,% Recovery (Mean ± SD),"4°C, 72 hours, 250 ng/mL",97.36 ± 0.85; 0.87%
same,% Recovery (Mean ± SD),"4°C, 72 hours, 500 ng/mL",96.99 ± 0.32; 0.33%
same,% Recovery (Mean ± SD),"4°C, 72 hours, 1,000 ng/mL",96.93 ± 0.48; 0.50%
same,% Recovery (Mean ± SD),"25°C, 0 hours, 250 ng/mL",98.15 ± 0.44; 0.45%
same,% Recovery (Mean ± SD),"25°C, 0 hours, 500 ng/mL",98.25 ± 0.55; 0.56%
same,% Recovery (Mean ± SD),"25°C, 0 hours, 1,000 ng/mL",98.55 ± 0.19; 0.19%
same,% Recovery (Mean ± SD),"25°C, 6 hours, 250 ng/mL",97.45 ± 0.34; 0.35%
same,% Recovery (Mean ± SD),"25°C, 6 hours, 500 ng/mL",97.39 ± 0.12; 0.12%
same,% Recovery (Mean ± SD),"25°C, 6 hours, 1,000 ng/mL",98.05 ± 0.15; 0.15%
same,% Recovery (Mean ± SD),"25°C, 24 hours, 250 ng/mL",95.51 ± 0.53; 0.55%
same,% Recovery (Mean ± SD),"25°C, 24 hours, 500 ng/mL",96.05 ± 0.41; 0.43%
same,% Recovery (Mean ± SD),"25°C, 24 hours, 1,000 ng/mL",97.55 ± 0.26; 0.27%
same,% Recovery (Mean ± SD),"25°C, 72 hours, 250 ng/mL",85.90 ± 0.50; 0.58%
same,% Recovery (Mean ± SD),"25°C, 72 hours, 500 ng/mL",84.95 ± 0.34; 0.40%
same,% Recovery (Mean ± SD),"25°C, 72 hours, 1,000 ng/mL",88.25 ± 0.74; 0.84%
same,% Recovery (Mean ± SD),"freeze and thaw 3x, 250 ng/mL",96.41 ± 0.17; 0.18%
same,% Recovery (Mean ± SD),"freeze and thaw 3x, 500 ng/mL",97.05 ± 0.22; 0.23%
same,% Recovery (Mean ± SD),"freeze and thaw 3x, 1,000 ng/mL",98.00 ± 0.87; 0.89%
